Earlier results in patent publication US11547692B2, “Complete animal food having cannabinoids in trace concentrations to avoid toxicity” (High Plains Nutrition, LLC, priority 2017, dated 2023).

Tested on: psychotropic effects
Conditions: humans; single administration; lowest dose tested; European Food Safety Authority (EFSA, 2011)

Structure (SMILES): CCCCCc1cc(O)c2c(c1)OC(C)(C)[C@@H]1CCC(C)=C[C@@H]21 [THC, Tetrahydrocannabinol]
- Lowest Observed Effect Level (LOEL), lowest effective dose for psychotropic effects: 0.04 mg THC/kg BW
